Here are results for 12 compounds from US20190330224A1, “ACC INHIBITORS AND USES THEREOF” (Gilead Apollo, LLC, priority 2015, published 2019).

The MIC is the least concentration at which growth counts as inhibited. By IC50 is commonly meant the concentration at which inhibition is half-maximal.

Converted amounts (≈) assume the structure as drawn.

The subject of one assay is C. albicans ATCC 90028. The assay can be described thus: Anti-Fungal Activity Assay (broth microtiter MIC), C. albicans. Format: cell-based, Candida albicans. As to conditions: Candida albicans, ATCC90028, 48 h, 3 replicates; MIC recorded at 48 h; read-out: MIC C. albicans ATCC 90028. Put shortly:
(§1)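 Candida strains were grown from frozen stock on Sabouraud dextrose agar overnight at 35° C, then suspended directly in RPMI 1640+MOPS and quantified against standard curves. Broth microdilution MIC plates followed CLSI M27-A3; MICs were read visually against growth control at 48 h, with a 24 h read added for soraphen.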

The test system of the next assay is C. krusei ATCC 6258. Briefly: Anti-Fungal Activity Assay (broth microtiter MIC), C. krusei. As to conditions: Pichia kudriavzevii, ATCC6258, 48 h, 3 replicates; MIC recorded at 48 h; read-out: MIC C. krusei ATCC 6258. Format: cell-based, Candida krusei. The method, boiled down:
as §1

The next assay has as its target Fungal ACC2 (UniProt Q00955). As to conditions: read-out: Fungal ACC2 (IC50, in vitro ACC2 inhibition).
Assay [1] concerns C. parapsilosis ATCC 22019. The assay can be described thus: Anti-Fungal Activity Assay (broth microtiter MIC), C. parapsilosis. The assay is classed as cell-based, Candida parapsilosis. As to conditions: Lodderomyces parapsilosis, ATCC22019, 48 h, 3 replicates; MIC recorded at 48 h; read-out: MIC C. parapsilosis ATCC 22019. The method, boiled down: as §1
The target of the next assay is Human ACC2 (Homo sapiens, UniProt O00763). The assay can be described thus: In vitro ACC2 inhibition assay (ADP-Glo), human ACC2. The following applies: 5 nM ACC2, 20 μM ATP, 20 μM acetyl-CoA. Format: biochemical. Background: In ADP-Glo the light output rises with the ADP produced.
Human ACC2, sequence (O00763 whole entry): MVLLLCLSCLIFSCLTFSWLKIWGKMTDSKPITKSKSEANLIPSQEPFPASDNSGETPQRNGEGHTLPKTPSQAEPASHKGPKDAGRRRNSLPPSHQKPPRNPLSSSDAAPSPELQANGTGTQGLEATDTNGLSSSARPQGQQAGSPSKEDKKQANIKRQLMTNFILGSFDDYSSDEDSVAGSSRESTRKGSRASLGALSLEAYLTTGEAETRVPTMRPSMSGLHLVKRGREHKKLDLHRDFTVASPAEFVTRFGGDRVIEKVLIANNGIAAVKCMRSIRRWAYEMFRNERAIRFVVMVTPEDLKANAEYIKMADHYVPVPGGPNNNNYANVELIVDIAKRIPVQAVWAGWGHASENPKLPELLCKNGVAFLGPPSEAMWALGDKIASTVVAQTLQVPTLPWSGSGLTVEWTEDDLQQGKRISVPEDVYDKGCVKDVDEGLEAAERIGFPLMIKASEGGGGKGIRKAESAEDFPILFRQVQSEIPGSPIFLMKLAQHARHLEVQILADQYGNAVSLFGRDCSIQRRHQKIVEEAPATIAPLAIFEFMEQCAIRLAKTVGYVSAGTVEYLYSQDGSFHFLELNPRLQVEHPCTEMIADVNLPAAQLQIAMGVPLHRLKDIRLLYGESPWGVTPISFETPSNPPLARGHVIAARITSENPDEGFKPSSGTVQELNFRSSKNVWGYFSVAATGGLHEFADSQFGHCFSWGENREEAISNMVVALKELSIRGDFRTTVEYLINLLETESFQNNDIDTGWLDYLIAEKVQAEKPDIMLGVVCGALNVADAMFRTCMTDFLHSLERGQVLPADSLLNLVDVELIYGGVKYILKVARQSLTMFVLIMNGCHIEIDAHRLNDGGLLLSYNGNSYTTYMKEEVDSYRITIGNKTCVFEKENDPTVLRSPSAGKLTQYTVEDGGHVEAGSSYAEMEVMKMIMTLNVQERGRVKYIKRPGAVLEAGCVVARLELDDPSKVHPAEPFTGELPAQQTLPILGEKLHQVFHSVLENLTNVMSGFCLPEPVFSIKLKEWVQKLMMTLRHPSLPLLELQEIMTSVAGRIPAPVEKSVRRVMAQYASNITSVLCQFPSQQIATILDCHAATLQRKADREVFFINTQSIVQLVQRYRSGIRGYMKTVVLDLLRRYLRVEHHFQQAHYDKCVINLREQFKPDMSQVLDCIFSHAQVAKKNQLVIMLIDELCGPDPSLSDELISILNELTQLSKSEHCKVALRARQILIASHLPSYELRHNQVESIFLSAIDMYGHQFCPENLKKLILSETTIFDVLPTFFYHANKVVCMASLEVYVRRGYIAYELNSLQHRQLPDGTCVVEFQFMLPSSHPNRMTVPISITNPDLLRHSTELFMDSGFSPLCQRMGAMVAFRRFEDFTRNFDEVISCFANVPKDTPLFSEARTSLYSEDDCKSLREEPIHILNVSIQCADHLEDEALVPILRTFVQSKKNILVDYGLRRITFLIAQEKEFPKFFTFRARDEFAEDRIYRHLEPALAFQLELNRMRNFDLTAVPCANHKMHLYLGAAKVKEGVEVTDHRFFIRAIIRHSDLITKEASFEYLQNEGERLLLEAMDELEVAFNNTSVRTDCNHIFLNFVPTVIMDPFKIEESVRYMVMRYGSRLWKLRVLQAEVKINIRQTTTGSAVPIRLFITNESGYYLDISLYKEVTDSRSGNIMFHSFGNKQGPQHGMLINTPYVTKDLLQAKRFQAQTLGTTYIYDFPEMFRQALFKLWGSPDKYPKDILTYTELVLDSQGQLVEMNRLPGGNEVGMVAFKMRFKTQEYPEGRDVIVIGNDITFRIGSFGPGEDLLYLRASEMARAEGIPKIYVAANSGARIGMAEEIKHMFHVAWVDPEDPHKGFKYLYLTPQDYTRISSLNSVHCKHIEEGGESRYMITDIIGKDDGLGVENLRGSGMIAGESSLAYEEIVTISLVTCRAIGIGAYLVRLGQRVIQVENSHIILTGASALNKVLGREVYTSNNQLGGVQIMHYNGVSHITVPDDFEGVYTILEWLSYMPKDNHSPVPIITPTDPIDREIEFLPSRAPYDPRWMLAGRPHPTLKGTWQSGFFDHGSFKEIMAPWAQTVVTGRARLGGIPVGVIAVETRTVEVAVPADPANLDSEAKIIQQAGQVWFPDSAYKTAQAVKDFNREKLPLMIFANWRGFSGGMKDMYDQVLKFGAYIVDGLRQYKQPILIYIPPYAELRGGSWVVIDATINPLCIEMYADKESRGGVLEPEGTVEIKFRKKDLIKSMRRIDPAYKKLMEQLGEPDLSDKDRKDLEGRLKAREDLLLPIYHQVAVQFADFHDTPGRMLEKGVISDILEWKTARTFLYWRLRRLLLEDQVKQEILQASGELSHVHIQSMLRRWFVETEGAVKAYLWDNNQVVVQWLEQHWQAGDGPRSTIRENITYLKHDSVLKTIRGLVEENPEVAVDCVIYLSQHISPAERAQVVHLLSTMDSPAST

Fungal ACC2, sequence (Q00955 whole entry): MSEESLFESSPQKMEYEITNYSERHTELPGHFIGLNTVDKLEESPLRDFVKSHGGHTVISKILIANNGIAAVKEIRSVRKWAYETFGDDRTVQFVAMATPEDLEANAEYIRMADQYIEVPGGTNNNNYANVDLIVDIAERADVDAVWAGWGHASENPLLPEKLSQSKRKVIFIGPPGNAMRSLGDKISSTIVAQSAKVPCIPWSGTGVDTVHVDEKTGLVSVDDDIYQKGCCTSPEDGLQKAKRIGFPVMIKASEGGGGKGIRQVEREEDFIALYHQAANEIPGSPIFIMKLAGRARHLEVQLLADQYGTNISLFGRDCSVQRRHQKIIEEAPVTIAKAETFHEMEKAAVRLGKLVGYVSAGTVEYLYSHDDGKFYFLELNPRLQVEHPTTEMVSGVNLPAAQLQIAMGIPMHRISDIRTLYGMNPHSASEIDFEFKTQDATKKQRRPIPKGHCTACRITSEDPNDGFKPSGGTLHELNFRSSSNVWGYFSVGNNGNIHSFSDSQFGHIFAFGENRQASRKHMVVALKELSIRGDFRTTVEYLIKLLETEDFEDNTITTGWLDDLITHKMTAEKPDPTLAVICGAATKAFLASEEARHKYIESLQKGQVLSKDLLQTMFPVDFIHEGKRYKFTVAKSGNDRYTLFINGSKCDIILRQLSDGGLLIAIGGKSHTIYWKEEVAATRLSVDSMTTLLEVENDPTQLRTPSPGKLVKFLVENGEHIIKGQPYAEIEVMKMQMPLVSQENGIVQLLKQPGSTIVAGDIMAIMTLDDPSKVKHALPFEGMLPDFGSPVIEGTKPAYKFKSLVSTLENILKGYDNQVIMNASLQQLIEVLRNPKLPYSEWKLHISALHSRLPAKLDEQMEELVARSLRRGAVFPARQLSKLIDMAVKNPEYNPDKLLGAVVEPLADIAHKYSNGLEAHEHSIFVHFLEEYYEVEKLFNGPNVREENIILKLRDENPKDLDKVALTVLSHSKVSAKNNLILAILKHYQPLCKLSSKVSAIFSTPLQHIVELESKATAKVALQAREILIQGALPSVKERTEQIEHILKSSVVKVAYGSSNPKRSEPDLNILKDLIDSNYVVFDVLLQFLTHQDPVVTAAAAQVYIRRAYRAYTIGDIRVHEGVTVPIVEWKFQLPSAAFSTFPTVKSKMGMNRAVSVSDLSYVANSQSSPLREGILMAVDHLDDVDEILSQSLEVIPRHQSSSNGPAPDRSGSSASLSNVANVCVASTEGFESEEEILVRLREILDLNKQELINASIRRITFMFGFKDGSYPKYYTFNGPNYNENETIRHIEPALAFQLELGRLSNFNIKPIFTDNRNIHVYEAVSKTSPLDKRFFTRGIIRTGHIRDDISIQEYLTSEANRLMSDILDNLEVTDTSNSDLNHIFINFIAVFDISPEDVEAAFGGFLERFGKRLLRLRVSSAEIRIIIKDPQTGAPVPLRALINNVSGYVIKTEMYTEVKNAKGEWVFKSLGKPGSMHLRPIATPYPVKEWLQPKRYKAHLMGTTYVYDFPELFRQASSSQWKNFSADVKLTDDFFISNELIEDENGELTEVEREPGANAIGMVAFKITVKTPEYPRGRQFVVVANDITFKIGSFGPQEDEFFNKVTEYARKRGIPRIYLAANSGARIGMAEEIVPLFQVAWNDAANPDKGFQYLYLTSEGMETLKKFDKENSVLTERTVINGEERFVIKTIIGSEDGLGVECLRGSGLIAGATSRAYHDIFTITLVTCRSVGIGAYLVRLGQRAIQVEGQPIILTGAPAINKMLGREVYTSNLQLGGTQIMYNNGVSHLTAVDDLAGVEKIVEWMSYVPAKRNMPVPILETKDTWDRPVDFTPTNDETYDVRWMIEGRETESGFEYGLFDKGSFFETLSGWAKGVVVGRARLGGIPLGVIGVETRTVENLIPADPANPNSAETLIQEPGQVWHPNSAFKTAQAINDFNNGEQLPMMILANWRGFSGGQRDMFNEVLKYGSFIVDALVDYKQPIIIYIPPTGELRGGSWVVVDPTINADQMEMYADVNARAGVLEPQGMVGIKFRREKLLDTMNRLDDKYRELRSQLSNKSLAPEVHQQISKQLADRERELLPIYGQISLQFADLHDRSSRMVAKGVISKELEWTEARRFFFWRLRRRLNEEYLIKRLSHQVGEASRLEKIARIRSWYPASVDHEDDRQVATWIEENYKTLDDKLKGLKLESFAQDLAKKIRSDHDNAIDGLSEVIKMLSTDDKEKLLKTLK

For the compound `COc1ccc(F)cc1[C@H](Cn1c(=O)n([C@@H]2CCNC2=O)c(=O)c2c(C)c(-c3ncco3)sc21)OCCO` [Compound I-69, 1-((R)-2-(5-fluoro-2-methoxyphenyl)-2-(2-hydroxy-ethoxy)ethyl)-5-methyl-6-(oxazol-2-yl)-3-((R)-2-oxopyrrolidin-3-yl)thieno[2,3-d]pyrimidine-2,4(1H,3H)-dione], the MIC (in the assay with C. albicans ATCC 90028; in the assay on C. krusei ATCC 6258; in assay [1]) was 2.1 to 4 µg/mL (≈ 3.86 to 7.35 µM) in each case. The figures for the IC50 on Fungal ACC2 and at Human ACC2 were 2 to 10 nM and 10 to 100 nM, respectively.

`COCCO[C@@H](Cn1c(=O)n([C@@H]2CCN(C(=O)C(C)C)C2)c(=O)c2c(C)c(-n3nccn3)sc21)c1cc(F)ccc1OC` [Compound I-86, 1-((R)-2-(5-fluoro-2-methoxyphenyl)-2-(2-methoxy-ethoxy)ethyl)-3-((R)-1-isobutyrylpyrrolidine-3-yl)-5-methyl-6-(2H-1,2,3-triazol-2-yl)thieno[2,3-d]pyrimidine-2,4(1H,3H)-dione]: the MIC (in the assay with C. albicans ATCC 90028; in the assay on C. krusei ATCC 6258; in assay [1]) was 2.1 to 4 µg/mL (≈ 3.42 to 6.51 µM) in each case. The IC50 at Fungal ACC2 lay within 0.7 to 2 nM; on Human ACC2, 10 to 100 nM.

Take `COc1ccc(F)cc1[C@H](Cn1c(=O)n([C@@H]2CCN(C(=O)C(C)C)C2)c(=O)c2c(C)c(-n3nccn3)sc21)OCCO` [Compound I-87, 1-((R)-2-(5-fluoro-2-methoxyphenyl)-2-(2-hydroxy-ethoxy)ethyl)-3-((R)-1-isobutyrylpyrrolidine-3-yl)-5-methyl-6-(2H-1,2,3-triazol-2-yl)thieno[2,3-d]pyrimidine-2,4(1H,3H)-dione]: the MIC (with C. albicans ATCC 90028; in the assay on C. krusei ATCC 6258; in assay [1]) was 2.1 to 4 µg/mL (≈ 3.5 to 6.66 µM) each time. For the same compound, the IC50 at Fungal ACC2 lay in the range of 0.7 to 2 nM; on Human ACC2 it was 10 to 100 nM.

As to `COCCO[C@@H](Cn1c(=O)n([C@H]2CNC(=O)C2)c(=O)c2c(C)c(-n3nccn3)sc21)c1cc(F)ccc1OC` [Compound I-88, 1-((R)-2-(5-fluoro-2-methoxyphenyl)-2-(2-methoxy-ethoxy)ethyl)-5-methyl-3-((R)-5-oxopyrrolidin-3-yl)-6-(2H-1,2,3-triazol-2-yl)thieno[2,3-d]pyrimidine-2,4(1H,3H)-dione], the MIC (with C. albicans ATCC 90028; with C. krusei ATCC 6258; in assay [1]) was 2.1 to 4 µg/mL (≈ 3.76 to 7.16 µM) in each case. Moreover, the IC50 at Fungal ACC2 was in the range of 0.7 to 2 nM; against Human ACC2, 10 to 100 nM.

For `COc1ccc(F)cc1[C@H](Cn1c(=O)n([C@H]2CNC(=O)C2)c(=O)c2c(C)c(-n3nccn3)sc21)OCCO` [Compound I-89, 1-((R)-2-(5-fluoro-2-methoxyphenyl)-2-(2-hydroxy-ethoxy)ethyl)-5-methyl-3-((R)-5-oxopyrrolidin-3-yl)-6-(2H-1,2,3-triazol-2-yl)thieno[2,3-d]pyrimidine-2,4(1H, 3H)-dione], the MIC (in the assay with C. albicans ATCC 90028; in the assay on C. krusei ATCC 6258; in assay [1]) was 2.1 to 4 µg/mL (≈ 3.86 to 7.35 µM) throughout. Besides, the IC50 is 0.7 to 2 nM at Fungal ACC2 and 2 to 10 nM against Human ACC2.

Regarding `COCCO[C@@H](Cn1c(=O)n([C@@H]2CNC(=O)C2)c(=O)c2c(C)c(-n3nccn3)sc21)c1cc(F)ccc1OC` [Compound I-90, 1-((R)-2-(5-fluoro-2-methoxyphenyl)-2-(2-methoxy-ethoxy)ethyl)-5-methyl-3-((S)-5-oxopyrrolidin-3-yl)-6-(2H-1,2,3-triazol-2-yl)thieno[2,3-d]pyrimidine-2,4(1H,3H)-dione], the MIC (with C. albicans ATCC 90028; in the assay with C. krusei ATCC 6258; in assay [1]) was 2.1 to 4 µg/mL (≈ 3.76 to 7.16 µM) in each case. The IC50 on Fungal ACC2 lay within 0.7 to 2 nM; against Human ACC2, 2 to 10 nM.

`COc1ccc(F)cc1[C@H](Cn1c(=O)n([C@@H]2CNC(=O)C2)c(=O)c2c(C)c(-n3nccn3)sc21)OCCO` [Compound I-91, 1-((R)-2-(5-fluoro-2-methoxyphenyl)-2-(2-hydroxy-ethoxy)ethyl)-5-methyl-3-((S)-5-oxopyrrolidin-3-yl)-6-(2H-1,2,3-triazol-2-yl)thieno[2,3-d]pyrimidine-2,4(1H,3H)-dione]: the MIC (in the assay on C. albicans ATCC 90028; with C. krusei ATCC 6258; in assay [1]) was 2.1 to 4 µg/mL (≈ 3.86 to 7.35 µM) throughout. Besides, the values for the IC50 at Fungal ACC2 and against Human ACC2 were 0.7 to 2 nM and 2 to 10 nM, respectively.

On to `COCCO[C@@H](Cn1c(=O)n([C@@H]2CC(=O)N(C)C2)c(=O)c2c(C)c(-n3nccn3)sc21)c1cc(F)ccc1OC` [Compound I-92, 1-((R)-2-(5-fluoro-2-methoxyphenyl)-2-(2-methoxy-ethoxy)ethyl)-5-methyl-3-((R)-1-methyl-5-oxopyrrolidin-3-yl)-6-(2H-1,2,3-triazol-2-yl)thieno[2,3-d]pyrimidine-2,4(1H,3H)-dione], for which the MIC (with C. albicans ATCC 90028; in the assay on C. krusei ATCC 6258; in assay [1]) was 2.1 to 4 µg/mL (≈ 3.67 to 6.99 µM) in each case. Besides, the IC50 was 0.7 to 2 nM on Fungal ACC2 and 10 to 100 nM against Human ACC2.

Regarding `COc1ccc(F)cc1[C@H](Cn1c(=O)n([C@@H]2CC(=O)N(C)C2)c(=O)c2c(C)c(-n3nccn3)sc21)OCCO` [Compound I-93, 1-((R)-2-(5-fluoro-2-methoxyphenyl)-2-(2-hydroxy-ethoxy)ethyl)-5-methyl-3-((R)-1-methyl-5-oxopyrrolidin-3-yl)-6-(2H-1,2,3-triazol-2-yl)thieno[2,3-d]pyrimidine-2,4(1H, 3H)-dione], the MIC (with C. albicans ATCC 90028; in the assay on C. krusei ATCC 6258; in assay [1]) was 2.1 to 4 µg/mL (≈ 3.76 to 7.16 µM) each time. Besides, the figures for the IC50 at Fungal ACC2 and at Human ACC2 were 0.7 to 2 nM and 2 to 10 nM, respectively.

For `COCCO[C@@H](Cn1c(=O)n([C@H]2CC(=O)N(C)C2)c(=O)c2c(C)c(-n3nccn3)sc21)c1cc(F)ccc1OC` [Compound I-94, 1-((R)-2-(5-fluoro-2-methoxyphenyl)-2-(2-methoxy-ethoxy)ethyl)-5-methyl-3-((S)-1-methyl-5-oxopyrrolidin-3-yl)-6-(2H-1,2,3-triazol-2-yl)thieno[2,3-d]pyrimidine-2,4(1H, 3H)-dione], the MIC (with C. albicans ATCC 90028; with C. krusei ATCC 6258; in assay [1]) was 2.1 to 4 µg/mL (≈ 3.67 to 6.99 µM) in each case. For the same compound, the half-inhibitory concentration (IC50) was in the range of 0.7 to 2 nM at Fungal ACC2 and 2 to 10 nM on Human ACC2.

As to `COc1ccc(F)cc1[C@H](Cn1c(=O)n([C@H]2CC(=O)N(C)C2)c(=O)c2c(C)c(-n3nccn3)sc21)OCCO` [Compound I-95, 1-((R)-2-(5-fluoro-2-methoxyphenyl)-2-(2-hydroxy-ethoxy)ethyl)-5-methyl-3-((S)-1-methyl-5-oxopyrrolidin-3-yl)-6-(2H-1,2,3-triazol-2-yl)thieno[2,3-d]pyrimidine-2,4(1H,3H)-dione], the MIC (in the assay with C. albicans ATCC 90028; in the assay with C. krusei ATCC 6258; in assay [1]) was 2.1 to 4 µg/mL (≈ 3.76 to 7.16 µM) each time. In addition, the IC50 on Fungal ACC2 and on Human ACC2 was 2 to 10 nM each time.

Consider `COCCO[C@@H](Cn1c(=O)n([C@H]2CCN(C(=O)C(C)C)C2)c(=O)c2c(C)c(-n3nccn3)sc21)c1cc(F)ccc1OC` [Compound I-96, 1-((R)-2-(5-fluoro-2-methoxyphenyl)-2-(2-methoxy-ethoxy)ethyl)-3-((S)-1-isobutyrylpyrrolidin-3-yl)-5-methyl-6-(2H-1,2,3-triazol-2-yl)thieno[2,3-d]pyrimidine-2,4(1H,3H)-dione], for which the MIC (in the assay with C. albicans ATCC 90028; with C. krusei ATCC 6258; in assay [1]) was 2.1 to 4 µg/mL (≈ 3.42 to 6.51 µM) throughout. The results for the IC50 at Fungal ACC2 and against Human ACC2 were 2 to 10 nM and 10 to 100 nM, respectively.
